The values below are quoted from earlier work in patent US20120128764A1, “CONTROLLED-RELEASE COMPOSITIONS COMPRISING A PROTON PUMP INHIBITOR” (Aptalis Pharmatech, Inc., priority 2009, published 2012).

The structures appear in SMILES notation.

Test in series [1]: not given
This is another data set of the same source.

Take `COc1ccnc(C[S+]([O-])c2nc3ccc(OC(F)F)cc3[nH]2)c1OC` (stereo not drawn) [Pantoprazole sodium sesquihydrate]: the “solubility in phosphate buffer” value (phosphate buffer at pH 7.4) was “very slightly soluble”. Moreover, the solubility in water entry (water) is given as “freely soluble”.

Turning to `COc1ccnc(C[S+]([O-])c2nc3ccc(OC(F)F)cc3[nH]2)c1OC` (stereo not drawn) [Pantoprazole, 5-(difluoromethoxy)-2-[(3,4-dimethoxypyridin-2-yl)methylsulfinyl]-3H-benzoimidazole], in series [1] (after oral administration), the “mean Tmax” value is listed as “approximately 90 minutes”. Further, the “half-life (t1/2)” value in series [1] (elimination) is 1.8 h. The “accumulation upon multiple dosing” value in series [1] (multiple dosing) is “does not accumulate”. The “dose proportionality of Cmax and AUC” value in series [1] (over 10 mg to 80 mg doses) was “dose proportional”.
